The source of these data is ChEMBL document CHEMBL3507680, “University of Dundee, Gates Library screen for HepG2 cell viability”.

The data set is described as follows: Human HepG2 cell viability assay in 384 well format. Further details: dose 125 nL, time 70.5 hour; concentration not given beside the values. The data set is classed as toxicity, cell-based. To be noted: HepG2 cells, read-out: Inhibition.

Molecules are shown by their SMILES.

Turning to `Cc1cccc(-c2noc([C@@H]3C[C@@H](O)CN3CC3CCCCC3)n2)c1`, the cytotoxicity at 70.5 h was -1.98%. For `Cc1ccc2oc([C@H]3CCN(Cc4ccccc4)C3)nc2c1`, the cytotoxicity at 70.5 h was found to be 5.17%. Consider `COc1ccc(CN2CCC[C@H]2c2nc(-c3cncnc3N)no2)cc1`, for which the cytotoxicity at 70.5 h stood at 12.8%.

As to `COCc1cc(CC2(NCc3ccccc3Cl)COC2)no1`, the cytotoxicity at 70.5 h is -3.62%. As for `CC(C)CNC1(Cc2cc(-c3ccccc3)on2)COC1`, the cytotoxicity at 70.5 h was -6.11%. In the case of `O=C(NC[C@H]1OC[C@@H](N(CC2CC2)CC2CC2)[C@@H]1O)Nc1ccccc1` it was -8.13%; in that of `Cc1nc(C)c(CN2CCOC[C@H](Oc3cnccn3)C2)s1`, -7.51%; in that of `CN1C[C@H]2CN(Cc3cccc(OC(F)(F)F)c3)CCN2C1=O`, 8.83%. With `Cc1ccc(CNC2(Cc3cc(C(C)(C)O)on3)COC2)o1` the figure was -5.2%; with `COC(=O)[C@H]1CN(C(=O)NC(C)C)CCN1C(=O)CSC`, -5.64%; with `c1ccc(-c2cc(CC3(NCc4ncc[nH]4)COC3)no2)cc1`, -4.27%. Regarding `CCCN(CCC)C1(Cc2cc(-c3cccc(O)c3)on2)COC1`, the cytotoxicity at 70.5 h was -2.95%. With `CCCS(=O)(=O)N1Cc2c(ncn2Cc2ccccc2)C[C@H]1C(=O)OC` the figure was -5.74%.

In the case of `O[C@@H]1C[C@@H](c2nc(Cc3ccccc3)no2)N(CC2CC2)C1`, the cytotoxicity at 70.5 h came out at 2.65%. On to `CN1C[C@@H](N)C[C@H]1c1nc(-c2ccc3c(c2)OCO3)no1`, for which the cytotoxicity at 70.5 h is -1.52%.

Take `O[C@H]1CC[C@@H](Cc2cc(-c3ccccn3)on2)O[C@@H]1CNCC1CC1`: the cytotoxicity at 70.5 h was -7.3%. For the molecule `O=C(Nc1ccccc1)[C@H]1O[C@H](CCN2CCNCC2)CC[C@@H]1O`, the cytotoxicity at 70.5 h stood at 0.346%.

With `CN1Cc2nc[nH]c2C[C@H]1C(=O)NC1CCCCC1`, the cytotoxicity at 70.5 h was -3.45%. In the case of `NC(=O)CN1C(=O)CO[C@H]2CN(Cc3ccc(F)c(F)c3)C[C@H]21` it was -3.9%.

Consider `Cc1cccc(CS(=O)(=O)NCc2nn(C)c3c2COCC3)c1`, for which the cytotoxicity at 70.5 h was -7.96%. With `Cn1nc(CNC(=O)C2CCC2)cc1C1CC1` the figure was -4.15%. With `Cn1nc(CNC(=O)C2CCCCC2)cc1C1CC1` the figure was 33%; with `CCSc1ccccc1C(=O)N1CCC(S(=O)(=O)c2nncn2C)CC1`, -5.86%. In the case of `Cn1cnnc1S(=O)(=O)C1CCN(S(=O)(=O)c2ccccc2F)CC1` it was -9.91%; in that of `CNC(=O)CS(=O)(=O)C1CCN(S(=O)(=O)c2cccnc2)CC1`, -3.91%; in that of `O=C(Cc1ccc(Br)cc1)N1CC(S(=O)(=O)C2CCCCC2)C1`, -4.51%.

Regarding `O=C(c1cccnc1)N1CC(S(=O)(=O)c2ccc(Cl)cc2)C1`, the cytotoxicity at 70.5 h was -10.4%. With `O=C(c1ccccn1)N1CC(S(=O)(=O)c2ccc(Cl)cc2)C1` the figure was 1.72%; with `O=C(Nc1ccc2c(c1)OCO2)Nc1cnn(C2CCOCC2)c1`, -0.609%; with `Cc1ccc(S(=O)(=O)Nc2cnn(C3CCOCC3)c2)cc1C`, 2.28%.

As for `CC(=O)c1ccc(S(=O)(=O)Nc2cnn(C3CCOCC3)c2)cc1`, the cytotoxicity at 70.5 h is 6.82%. In the case of `COC(CNC(=O)c1cn(C)nn1)c1ccc(C)s1` (stereo unspecified) it was -6.13%; in that of `COc1nn(C)cc1C(=O)NCC(OC)c1ccccc1C` (stereo unspecified), -3.02%. Regarding `COC(CNC(=O)c1cn(C)nn1)c1ccccc1C` (stereo unspecified), the cytotoxicity at 70.5 h was -3.6%.

With `CCC(CNC(C)=O)(OC)c1ccccc1` (stereo unspecified), the cytotoxicity at 70.5 h was -6.06%. Consider `O=C(CC1CCCC1)N1CCN(c2ccc(-n3cncn3)nn2)CC1`, for which the cytotoxicity at 70.5 h is -7.71%. In the case of `O=C(O)c1ncccc1N1CCCCC1`, the cytotoxicity at 70.5 h is -14.8%. In the case of `CCN1C(=O)C[C@@H]2[C@@H]1CCN2S(=O)(=O)c1cccc(C)c1` it was 12.1%; in that of `CC(C)C(=O)N1CCC(C2C(=O)Nc3ccccc32)CC1` (stereo unspecified), -16.1%.

With `COCCN1C[C@H]2CCN(C(=O)Nc3ccccc3C)CC[C@H]2S1(=O)=O`, the cytotoxicity at 70.5 h is -11.5%.

`CCN1CCC2(CN(C(C)=O)CC23CCN(C(=O)N(C)C)CC3)C1=O` (stereo unspecified): the cytotoxicity at 70.5 h is -9.48%.

Take `Cc1cc(C(=O)N[C@H]2CC[C@@]3(CCC(=O)N3)CC2)no1`: the cytotoxicity at 70.5 h is -6.09%.

On to `COc1ccc(CN2C[C@@H]3CN(CCO)C[C@@H]3C2=O)cc1`, for which the cytotoxicity at 70.5 h was -11.6%. For `COC1COC2(CCN(Cc3ccco3)CC2)C1` (stereo unspecified), the cytotoxicity at 70.5 h was -8.76%.

As for `c1cnc(N2C[C@H]3CCC[C@@H](CN4CCCC4)[C@H]3C2)nc1`, the cytotoxicity at 70.5 h was found to be 22.9%. Take `CCn1c2c(ccc1=O)CC(N)CC2` (stereo unspecified): the cytotoxicity at 70.5 h was found to be 15.2%. In the case of `CCN1CCNC(=O)C12CCN(S(=O)(=O)c1ccc(F)cc1)CC2` it was 0.587%; in that of `CCN1CCNC(=O)C12CCN(S(=O)(=O)c1ccccc1)CC2`, -6.26%. As to `O=C(NCC1CC1)C1CCC2(CCNCC2)C1` (stereo unspecified), the cytotoxicity at 70.5 h was -2.15%. For the molecule `CCN1CCNC(=O)C12CCN(S(=O)(=O)c1ccc(OC)cc1)CC2`, the cytotoxicity at 70.5 h is -7.91%. As to `O=C(NC1CC1)N1CCCC2(CCNC2=O)C1` (stereo unspecified), the cytotoxicity at 70.5 h is -3.68%. With `O=C1CCC2(CCCN(C(=O)Cc3cccs3)C2)N1` (stereo unspecified) the figure was -5%; with `NC1CCc2c(ccc(=O)n2Cc2ccncc2)C1` (stereo unspecified), 2.44%; with `CC(C)N1CCc2[nH]nc(C(=O)N3CCCC3C)c2C1` (stereo unspecified), -4.03%. Turning to `CCOCC(=O)N1C[C@H]2CN(CC3CC3)C(=O)[C@H]2C1`, the cytotoxicity at 70.5 h is -5.22%. In the case of `Cn1ccc(C(=O)N2CCCCC23CC(=O)N(Cc2ccccc2)C3)n1` (stereo unspecified) it was 1.38%. As for `Cc1nc(CN2CCC3(CCN(Cc4cnn(C)c4)C3)C2=O)cs1` (stereo unspecified), the cytotoxicity at 70.5 h is -13.8%. In the case of `CCO[C@@H]1CC[C@H]2[C@H]1OCCN2Cc1ccc(F)cc1`, the cytotoxicity at 70.5 h is -16.2%. With `O=C(c1ccc[nH]1)N1Cc2nccn2CC(Cn2ncccc2=O)C1` (stereo unspecified) the figure was -6.79%; with `CC(=O)N1CCC2(CC1)CC(NC(=O)N(C)C)c1cc(C)ccc12` (stereo unspecified), -5.6%. In the case of `C1CC(CN2CC[C@@H]3O[C@@H](c4nnc(C5CC5)o4)C[C@H]3C2)CCO1` it was -9.09%; in that of `O=C(C1CCC1)N1CCC2(CCNCC2)C1`, 13.3%; in that of `CC(C)COC(=O)N1CCC2(CCNC2)C1` (stereo unspecified), -10.5%. With `CCOC(=O)N1CCCC2(CCCNC2)C1` (stereo unspecified) the figure was -1.34%; with `CCCC(=O)N1CCc2c(CNS(C)(=O)=O)cncc2C1`, -8.58%. In the case of `CS(=O)(=O)NCc1cncc2c1CCN(C(=O)c1cccnc1)C2`, the cytotoxicity at 70.5 h is -5.3%. With `CO[C@H]1CCN(C2CCOCC2)C[C@@H]1Cc1ccccc1` the figure was -7.39%. As for `CO[C@@H]1CCN(C2CCOCC2)C[C@@H]1Cc1ccccc1`, the cytotoxicity at 70.5 h was -11.8%.

Turning to `CN(C)CCN1C(=O)C[C@@H]2[C@@H]1CCN2S(=O)(=O)c1ccccc1`, the cytotoxicity at 70.5 h was -12.7%. In the case of `O=C1[C@@H]2CN(C3CCOCC3)C[C@H]2CCN1CC1CC1` it was -10.2%. Regarding `CN(C)C(=O)CN1CC[C@H]2CN(S(C)(=O)=O)C[C@@H]2C1=O`, the cytotoxicity at 70.5 h was -3.84%. With `CCN1CCC2(CN(C(=O)N(C)C)CC23CCNCC3)C1=O` (stereo unspecified) the figure was -8.8%; with `O=C(C1CCC2(CCN(CC3CCOCC3)CC2)O1)N1CCCC1` (stereo unspecified), 4.83%; with `CN(C)C(=O)N1CC2(CCN(CC3CC3)CC2)c2cc(F)ccc21`, 19.9%.

Consider `O=C1CC[C@]2(CC[C@@H](NCc3ccc4c(c3)OCO4)CC2)N1`, for which the cytotoxicity at 70.5 h was determined as 19.9%. With `O=C(C1CC1)N1CC2(CCN(CC3CC3)CC2)c2cc(F)ccc21` the figure was 25.9%. For `O=C1CC[C@]2(CC[C@@H](NCc3ccoc3)CC2)N1`, the cytotoxicity at 70.5 h is -2.86%. Take `O=C(C1CC1)N1CC2(CCNCC2)c2cc(F)ccc21`: the cytotoxicity at 70.5 h is -11.1%. As for `CCN(C)C1COC2(CCN(C(=O)c3cccc(Cl)c3)CC2)C1` (stereo unspecified), the cytotoxicity at 70.5 h was -6.18%. Consider `O=C(C[C@H]1[C@H]2CN(Cc3ccsc3)C[C@@H]12)N1CCCC1`, for which the cytotoxicity at 70.5 h was -1.9%. As to `Cc1cccc(CN2CCc3[nH]nc(C(=O)N(C)C)c3C2)n1`, the cytotoxicity at 70.5 h was 33.4%.

Turning to `O=C1CCC2(CCCN(C(=O)Cc3cccnc3)C2)N1` (stereo unspecified), the cytotoxicity at 70.5 h was -6.68%. With `Cc1ccc(CN2C(=O)CC[C@]23CC[C@@H](NC2CCOC2)CC3)cc1` (stereo partly specified) the figure was -1.41%. With `COc1ccc(CN[C@H]2CC[C@@]3(CCC(=O)N3)CC2)cc1` the figure was -6.23%. In the case of `CNC(=O)C1CCC2(CCNCC2)C1` (stereo unspecified), the cytotoxicity at 70.5 h was -3.71%. Regarding `CO[C@@H]1CC[C@H]2[C@H]1OCCN2Cc1ccc(F)c(F)c1`, the cytotoxicity at 70.5 h is -9.19%. With `O=C(N1CCCC1)N1Cc2nccn2CC(COc2cccnc2)C1` (stereo unspecified) the figure was -9.49%; with `CO[C@@H]1CC[C@H]2[C@H]1OCCN2Cc1ccc(F)cc1`, -9.94%; with `Cc1nc(CN2CCCC3(CCN(c4cnn(C)c4)C3=O)C2)cs1` (stereo unspecified), -11.6%.

In the case of `Cn1ccc(C(=O)N2C[C@@H]3OCCN(c4ncccn4)[C@@H]3C2)n1`, the cytotoxicity at 70.5 h is -12.1%. With `COc1ccc(CN2CC[C@@H]3[C@H]2CCC(=O)N3c2cnn(C)c2)cc1` the figure was 5.08%. With `O=c1cccnn1CC1CN(CC2CCCC2)Cc2nccn2C1` (stereo unspecified) the figure was -5.89%; with `Cc1ccc2c(c1)C(NC(=O)N(C)C)CC21CCN(C(C)C)CC1` (stereo unspecified), -5.2%; with `CCN1CCN(C)C2(CCN(Cc3ccc(C)o3)CC2)C1=O`, -7.08%. In the case of `c1cc(CN2CCC3(CCOCC3COCC3CC3)CC2)ccn1` (stereo unspecified) it was 0.537%; in that of `Cc1ccc(CN2CCc3[nH]nc(C(=O)N(C)C)c3C2)s1`, 3.17%.
